“Also recorded” adds a separate entry of the source. Square brackets hold non-standard residues; d marks the D form. Ends that are not written are not given here. Peptide text beside a SMILES is read from it. Nle = CCCC[C@H](N)C(=O)O; Nva = CCC[C@H](N)C(=O)O
Experiments:
[1] = system: T cell line specific for the native epitope (PRAME425-433); assay: Cross-reactivity of PRAME425-433 analogs: IFN-gamma from native-epitope-specific T cell line; type: cell-based
Method: The analogs listed in FIGS. 26-28 were tested for various properties such as improved affinity and stability of binding, cross-reactivity with the native epitope, and immunogenicity as follows in Examples 40-48. […] The observed affinities of the analogs are reported as % binding (compared to the positive control) and ED50, and stability of binding as half time of dissociation. Cross reactivity with the native epitope was assessed by using the analog peptides to stimulate IFN-gamma secretion from a T cell line specific for the native epitope, essentially as described in Example 6. The data shown in FIGS. 26-28 were generated by stimulating with analog peptide at approximately 0.3 μM. […] In some cases, the reported values are the average of two determinations.

[2] = system: PRAME+ A2+ 624.38 melanoma cells; assay: PRAME immunization, ex vivo cytotoxicity against human tumor cells; type: in vivo, HHD transgenic mice; settings: for ex vivo cytotoxicity against A2+ PRAME+ 624.38 cells, in words: mouse
Method: This was followed by two peptide boosts (2.5 μg) at day 28 and 31, with the analog L426Nva L433Nle.

[3] = system: T cells that recognized native PSMA288-297 peptide; assay: Peptide immunization with PSMA analogs, IFN-gamma ELISPOT against native peptide; type: in vivo, HHD transgenic mice; settings: peptide + pI:C intranodal immunization
Method: Groups of HHD transgenic mice (n=8) were immunized with peptide (natural epitope PSMA288-297, or analogs bearing substitutions at primary or secondary anchor residues) by direct inoculation into the inguinal lymph nodes, with 25 μg in 25 μl of PBS+12.5 μg of pI:C to each lymph node at day 0, 3, 14 and 17.
Mice were sacrificed at 10 days after the last boost, and splenocytes prepared and assessed for IFN-γ production by ELISPOT analysis. […] At 48 hours after incubation, the assay was developed and the frequency of cytokine-producing T cells that recognized native PSMA288-297 peptide was automatically counted. The data is represented in FIG. 22 as the number of spot forming colonies/well (mean of triplicates±SD). […] To the extent that the poor immunogenicity of the native epitope reflects tolerance, the improved activity of these analogs represents tolerance breaking.

[4] = system: splenocytes stimulated with wild-type peptide NY-ESO-1157-165; assay: NY-ESO-1 boost, ex vivo IFN-gamma production by splenocytes (ELISA); type: in vivo, mice; settings: 10 μM wild-type peptide, 3 and 6 days
From the text: Supernatants were harvested and the concentration of IFN-γ measured by ELISA.

[5] = system: target cells coated with wild-type peptide; assay: Plasmid prime, NY-ESO-1 peptide boost, in vivo cytotoxicity (CFSE); design: species or system HHD mice; settings: plasmid entrain, peptide amplify; targets coated with wild-type NY-ESO-1 peptide
Method: (§1) These cells were then stained with CFSE^hi and CFSE^med fluorescence (4.0 μM or 1 μM, respectively, for 15 minutes) and intravenously co-injected into immunized mice with an equal number of control splenocytes stained with CFSE^lo fluorescence (0.4 μM). Eighteen hours later the specific elimination of target cells was measured by removing the spleens and PBMC from challenged animals and measuring CFSE fluorescence by flow cytometry. The relative depletion of the populations corresponding to peptide loaded splenocytes was calculated relative to the control (unloaded) population and expressed as % specific lysis.

HLA-A*0201 [6] = target: T1, HLA-A*0201 (Homo sapiens, UniProt P04439, D140Y/D185E/D98H/E176V/E277Q/G131W/G231S/I119V/I121R/I166T/I218V/L300P/L318F/N151K/N90K/P208A/P217A/Q86G/Q94H/R138H/R169H/T345S); assay: Peptide binding using T2 cells (SSX-2 41-49 analogs); settings: half maximal binding of wild-type peptide relative to analog; native = 1.0
From the text: Thus, at limiting concentrations of peptide, it is a measurement of Kon mostly and at saturation levels of peptide it is a measurement of both Kon and Koff.

[7] = system: T cell lines against a natural (non-mutated) epitope (SSX-241-49); assay: Cross-reactivity and functional avidity: IFN-gamma from T cell lines against natural SSX-2 41-49 epitope; type: cell-based, HHD transgenic mice; settings: IFN-gamma from T cell line raised against native SSX-2 41-49; native = 1, lower = more active;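 note: peptide analogs tested ex vivo with competent APCs, IFN-gamma in supernatant measured by ELISA, readouts include minimal triggering concentration, peak effect and concentration at peak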
[8] = system: target cells coated with natural peptide; assay: Plasmid prime, SSX-2 peptide boost, in vivo cytotoxicity (CFSE); design: species or system HHD mice; settings: spleen and blood; targets coated with 20 μg/ml and 1 μg/ml natural peptide
Method: Eight groups of mice (n=4) were immunized with plasmid expressing SSX-241-49 natural epitope, by direct inoculation into the inguinal lymph nodes with 25 μg in 25 μl of PBS/each lymph node at day 0, 3, 14 and 17. This was followed by two additional peptide boosts (similar amount) at day 28 and 31, using a negative control peptide (Melan A 26-35 “EAA”), natural peptide or analogs as shown in FIG. 9.
as §1, with “To evaluate the in vivo response against natural peptide, splenocytes were isolated from littermate control HHD mice and incubated with 20 μg/mL or 1 μg/ml of natural peptide for 2 hours. These” for “These”, “CFSE^hi” for “CFSE^hi and CFSE^med”, “μM” for “μM, respectively,”, “spleen” for “the spleens”, “lysis. FIGS. 10 (spleen) and 11 (blood) show the in vivo cytotoxicity elicited by the regimens described in FIG. 7.” for “lysis.”

HLA-A*0201 [9] = target: T1, HLA-A*0201; assay: iTopia affinity assay (ED50); type: binding; settings: PRAME425-433 analogs
From the text: Avidin-coated microtiter plates containing class I monomer loaded with a so-called placeholder peptide were used to evaluate peptide binding, affinity and off-rate. The monomer-coated plates were supplied as part of the iTopia Epitope Discovery System Kit (Beckman Coulter, Inc., San Diego, Calif., USA). Assay buffers, anti-MHC-FITC mAb and beta2-microglobulin and control peptides were also supplied with the kits.
Plates were read on the fluorometer. Sigmoidal dose response curves were generated using Prism software.

[10] = system: splenocytes stimulated with native peptide; assay: pCTLR2 prime, PRAME peptide boost, ex vivo IFN-gamma ELISA; type: in vivo, HHD transgenic mice; settings: 2.5 μg peptide boost, 10 μg/ml native peptide, 48 hours
[11] = system: PRAME425-433-specific T cells; assay: pCTLR2 prime, PRAME peptide boost, tetramer/CD8 co-staining; type: in vivo, HHD transgenic mice; settings: versus boost with negative control peptide
[12] = system: native epitope coated cells; assay: pCTLR2 prime, PRAME peptide boost, in vivo cytotoxicity (CFSE); design: species or system HHD transgenic mice
624.38 melanoma cells = assay: Plasmid prime, SSX-2 peptide boost, ex vivo cytotoxicity against human tumor cells; type: in vivo, mice; settings: ex vivo after boost
Method: Eight groups of mice (n=4) were immunized with plasmid expressing SSX-241-49 natural epitope by direct inoculation into the inguinal lymph nodes with 25 μg in 25 μl of PBS/each lymph node at day 0, 3, 14 and 17. This was followed by two additional peptide boosts (similar amount) at day 28 and 31, using a negative control peptide (Melan A 26-35 “EAA”), natural peptide or analogs as shown in FIG. 9.

## Lys P1 analog: PRAME425-433 analog with Lys for Ser at P1 (KLLQHLIGL)
[1]; analog peptide at approximately 0.3 μM
  IFN-γ elicited, % of the native peptide: 40%

## SLLQHLIGL [PRAME 425-433, reference compound]
[2]
  ex vivo cytotoxicity against A2+ PRAME+ 624.38 cells, in words: able to lyse human tumor cells

## GLWSIPVHPI [Peptide P290W]
[3]
  IFN-γ ELISPOT response against native epitope, in words: increased priming of immune responses against the native epitope

## L158V C165V: NY-ESO-1 157-165 analog, L158V and C165V (SVLMWITQV; UniProt P78358 157-165, looked up, variant L158V C165V)
[4]
  IFN-gamma production upon ex vivo re-stimulation, in words: increased amounts of IFN-gamma
[5]
  in vivo cytotoxicity (% specific lysis), in words: effect in the same range with wild-type peptide or the C165V mutant

## YASEKIFYV [SSX2 41-49 (K41Y)]
HLA-A*0201 [6]
  Relative affinity (1/RA): 1.7
[7]
  Cross-reactivity and fct avidity (native to analogs)*: 3
[8]
  in vivo cytotoxicity (% specific lysis), in words: increased activity relative to the natural peptide

## FASEKIFYV [SSX2 41-49 (K41F)]
HLA-A*0201 [6]
  Relative affinity (1/RA): 1.5
[7]
  Cross-reactivity and fct avidity (native to analogs)*: 0.3
[8]
  in vivo cytotoxicity (% specific lysis), in words: increased activity relative to the natural peptide

## S157K L158V C165V: NY-ESO-1 157-165 analog, triple mutant (KVLMWITQV; UniProt P78358 157-165, looked up, variant S157K L158V C165V)
[5]
  in vivo cytotoxicity (% specific lysis), in words: effect in the same range with wild-type peptide or the C165V mutant

## Ala substitution: PRAME425-433 analog with Ala at the PΩ anchor position (SLLQHLIGA; UniProt P78395 425-433, looked up, variant L433A)
HLA-A*0201 [9]; printed as reduced / less (lower affinity)
  ED50 change relative to native peptide: more than 10 fold

## {Abu}LPSIPVHPI [Peptide G288Abu]
[3]
  IFN-γ ELISPOT response against native epitope, in words: slightly higher (but significant) activity than the native peptide

## T{Nva}LQHLIG{Nle} (T[Nva]LQHLIG[Nle]) [S425T L426Nva L433Nle]
[10]
  IFN-γ production by splenocytes (ELISA), in words: ex vivo cytokine production
[11]
  expansion of native epitope-specific T cells (tetramer), in words: significantly higher than in mice primed with plasmid and boosted with the negative control peptide
[12]
  in vivo cytotoxicity against native epitope, in words: capable of expanding the immunity against the native epitope

## S{Nva}LQHLIG{Nle} (S[Nva]LQHLIG[Nle]) [Prame 425-433 (L426Nva, L433Nle)]
[10]; listed as L426Nva L433Nle
  IFN-γ production by splenocytes (ELISA), in words: greater response
[10]; listed as PRAME425-433 L426Nva L433Nle
  IFN-γ production by splenocytes (ELISA), in words: significant enhancement of IFN-γ production
HLA-A*0201 [9]
  affinity (ED50) / binding characteristics relative to native, in words: similar, somewhat improved binding characteristics
[1]; PRAME425-433 analogs at approximately 0.3 μM
  IFN-γ production (cross-reactivity) relative to native, in words: significant level of cross-reactivity
[2]
  ex vivo cytotoxicity against A2+ PRAME+ 624.38 cells, in words: cytotoxic immunity against a human tumor cell line; also recorded: significant cytotoxicity against human tumor cells expressing A2 (624.38)
[2]; negative control cells
  ex vivo cytotoxicity against A2- 624.28 control cells, in words: no significant activity
[11]
  expansion of native epitope-specific T cells (tetramer), in words: significantly higher than in mice primed with plasmid and boosted with the negative control peptide
[12]
  in vivo cytotoxicity against native epitope, in words: cytotoxic immunity against native epitope coated cells; also recorded: capable of expanding the immunity against the native epitope

## S157F L158V C165V: NY-ESO-1 157-165 analog, triple mutant (FVLMWITQV; UniProt P78358 157-165, looked up, variant S157F L158V C165V)
[4]
  IFN-gamma production upon ex vivo re-stimulation, in words: increased amounts of IFN-gamma

## CC[C@H](C)[C@H](NC(=O)[C@H](Cc1ccc(O)cc1)NC(=O)[C@H](Cc1ccccc1)NC(=O)[C@@H](NC(=O)[C@H](CCCCN)NC(=O)[C@H](CCC(=O)O)NC(=O)[C@H](CO)NC(=O)[C@@H](NC(=O)[C@@H](N)Cc1ccccc1)C(C)C)[C@@H](C)CC)C(=O)O [SSX2 41-49 (K41F, A42V, V49I)]
HLA-A*0201 [6]
  Relative affinity (1/RA): 1.6
[7]
  Cross-reactivity and fct avidity (native to analogs)*: 0.3
624.38 melanoma cells
  cytotoxicity against human tumor cells, in words: increased cytotoxicity against human tumor cells

## SNvaLMWITQV (S[Nva]LMWITQV) [Nyeso-1 157-165 (L158Nva, C165V))]
[4]
  IFN-gamma production upon ex vivo re-stimulation, in words: large levels of IFN-gamma more rapidly
[5]
  in vivo cytotoxicity (% specific lysis), in words: substantial, constant cytotoxicity

## I297Nva: PSMA288-297 analog with Nva for Ile at position 297 [Peptide I297Nva]
[3]
  IFN-γ ELISPOT response against native epitope, in words: slightly higher (but significant) activity than the native peptide

## FVSEKLFTV [SSX2 41-49 (K41F, A42V, I46L, Y48T)]
HLA-A*0201 [6]
  Relative affinity (1/RA): 2.6
[7]
  Cross-reactivity and fct avidity (native to analogs)*: >10

## CC[C@H](C)[C@H](NC(=O)[C@H](CCCCN)NC(=O)[C@H](CCC(=O)O)NC(=O)[C@H](CO)NC(=O)[C@H](C)NC(=O)[C@@H](N)Cc1ccc(OC)cc1)C(=O)N[C@@H](Cc1ccccc1)C(=O)N[C@@H](Cc1ccc(O)cc1)C(=O)N[C@H](C(=O)O)C(C)C [SSX2 41-49 (K41(O-methyl Tyr))] (H-Y(Me)ASEKIFYV-OH)
HLA-A*0201 [6]
  Relative affinity (1/RA): 0.8
[7]
  Cross-reactivity and fct avidity (native to analogs)*: 3
